Values of other authors, collected in article PMC11436104 (Toxins, 2024).

Test system: rat primary astrocytes
Conditions: cited from earlier work

Substance: MC-LF
- cytotoxicity in rat primary astrocytes: selective cytotoxicity
